Data: article PMC9145702, “Design, Synthesis and Evaluation of Fused Bicyclo[2.2.2]octene as a Potential Core Scaffold for the Non-Covalent Inhibitors of SARS-CoV-2 3CL^pro Main Protease” (Pharmaceuticals, 2022)
pIC50: −log10 of the molar value. Where two headings read alike, the source gives them in different places.

Experiments:
[1] = biological target: SARS-CoV-2 3CL^pro main protease (Severe acute respiratory syndrome coronavirus 2, UniProt P0DTD1); assay: FRET-based assay of SARS-CoV-2 3CL^pro main protease inhibition activity; type: biochemical; conditions: for first screening result (hit candidate): first FRET screening at 64 μM of each compound, before accounting for compound effect on fluorescence; for screening result after accounting for effect on measured fluorescence: 64 μM, difference between 3CL(+) and 3CL(-) fluorescence
3CL^pro = system: 3CL^pro; parameters: method as in PMID 33817567; conditions: compared with 11a; read-out: inhibition activity; cited from earlier work

Row | SMILES | melting point | further results
1 | O=C(NC12C=CC(c3ccco3)(C3C(=O)N(NC(=O)c4ccccn4)C(=O)C31)C1C(=O)N(NC(=O)c3ccccn3)C(=O)C12)c1ccccc1 (stereo not drawn) [11i, N-[8-(2-Furyl)-2,3,3a,4a,5,6,7,7a,8,8a-decahydro-1,3,5,7-tetraoxo-2,6-bis(2-pyridylcarboamino)-4,8-ethenobenzo[1,2-c:4,5-c′]dipyrrol-4(1H)-yl]benzamide] | 332 to 334 °C | first screening result (hit candidate) [1]: candidate hit compounds
2 | O=C(NN1C(=O)C2C(C1=O)C1(c3ccco3)C=CC2(NC(=O)c2ccccc2)C2C(=O)N(NC(=O)c3cccnc3)C(=O)C21)c1cccnc1 (stereo not drawn) [11j, N-[8-(2-Furyl)-2,3,3a,4a,5,6,7,7a,8,8a-decahydro-1,3,5,7-tetraoxo-2,6-bis(3-pyridylcarboamino)-4,8-ethenobenzo[1,2-c:4,5-c′]dipyrrol-4(1H)-yl]benzamide] | 272 to 276 °C | 
3 | O=C(NC12C=CC(c3ccccc3)(C3C(=O)N(NC(=O)c4ccccn4)C(=O)C31)C1C(=O)N(NC(=O)c3ccccn3)C(=O)C12)c1ccccc1 (stereo not drawn) [11a, N-[8-Phenyl-2,3,3a,4a,5,6,7,7a,8,8a-decahydro-1,3,5,7-tetraoxo-2,6-bis(2-pyridylcarboamino)-4,8-ethenobenzo[1,2-c:4,5-c′]dipyrrol-4(1H)-yl]benzamide] | 263 to 265 °C | screening result after accounting for effect on measured fluorescence [1]: remained as hit candidates; pIC50 ([1]; FRET assay, isolated SARS-CoV-2 3CL^pro, compound concentrations 200, 100, 50 and 25 μM): 3.99; first screening result (hit candidate) [1]: candidate hit compounds
4 | COc1ccc(C2=CC3(NC(=O)c4ccccc4)C4C(=O)N(NC(=O)c5ccccn5)C(=O)C4C2(C)C2C(=O)N(NC(=O)c4ccccn4)C(=O)C23)cc1 (stereo not drawn) [11l, N-[2,3,3a,4a,5,6,7,7a,8,8a-Decahydro-8-methyl-9-(4-methoxyphenyl)-1,3,5,7-tetraoxo-2,6-bis(2-pyridylcarboamino)-4,8-ethenobenzo[1,2-c:4,5-c′]dipyrrol-4(1H)-yl]benzamide] | 298 to 303 °C (dec.) | 
5 | Cc1c(O)cccc1C(=O)N[C@@H](CSc1ccccc1)[C@H](O)CN1C[C@H]2CCCC[C@H]2C[C@H]1C(=O)NC(C)(C)C [nelfinavir] |  | pIC50 (3CL^pro): ~4.40
6 | O=C(NC12C=CC(c3cccs3)(C3C(=O)N(NC(=O)c4ccccn4)C(=O)C31)C1C(=O)N(NC(=O)c3ccccn3)C(=O)C12)c1ccccc1 (stereo not drawn) [11f, N-[2,3,3a,4a,5,6,7,7a,8,8a-Decahydro-1,3,5,7-tetraoxo-2,6-bis(2-pyridylcarboamino)-8-(2-thienyl)-4,8-ethenobenzo[1,2-c:4,5-c′]dipyrrol-4(1H)-yl]benzamide] | 288 to 291 °C (dec.) | first screening result (hit candidate) [1]: candidate hit compounds
7 | CC1=CC2(c3ccccc3)C3C(=O)N(NC(=O)c4cccnc4)C(=O)C3C1(NC(=O)c1ccccc1)C1C(=O)N(NC(=O)c3cccnc3)C(=O)C12 (stereo not drawn) [11e, N-[8-Phenyl-2,3,3a,4a,5,6,7,7a,8,8a-decahydro-10-methyl-1,3,5,7-tetraoxo-2,6-bis(3-pyridylcarboamino)-4,8-ethenobenzo[1,2-c:4,5-c′]dipyrrol-4(1H)-yl]benzamide] | 345 to 347 °C (dec.) | pIC50 [1]: ~3.70; screening result after accounting for effect on measured fluorescence [1]: remained as hit candidates; first screening result (hit candidate) [1]: candidate hit compounds
8 | O=C(NN1C(=O)C2C(C1=O)C1(c3ccco3)C=CC2(NC(=O)c2ccccc2)C2C(=O)N(NC(=O)c3ccncc3)C(=O)C21)c1ccncc1 (stereo not drawn) [11k, N-[8-(2-Furyl)-2,3,3a,4a,5,6,7,7a,8,8a-decahydro-1,3,5,7-tetraoxo-2,6-bis(4-pyridylcarboamino)-4,8-ethenobenzo[1,2-c:4,5-c′]dipyrrol-4(1H)-yl]benzamide] | 309 to 311 °C | 
9 | COc1ccc(C2=CC3(NC(=O)c4ccccc4)C4C(=O)N(NC(=O)c5ccncc5)C(=O)C4C2(C)C2C(=O)N(NC(=O)c4ccncc4)C(=O)C23)cc1 (stereo not drawn) [11n, N-[2,3,3a,4a,5,6,7,7a,8,8a-Decahydro-8-methyl-9-(4-methoxyphenyl)-1,3,5,7-tetraoxo-2,6-bis(4-pyridylcarboamino)-4,8-ethenobenzo[1,2-c:4,5-c′]dipyrrol-4(1H)-yl]benzamide] | 387 to 390 °C (dec.) | 
10 | COc1ccc(C2=CC3(NC(=O)c4ccccc4)C4C(=O)N(NC(=O)c5cccnc5)C(=O)C4C2(C)C2C(=O)N(NC(=O)c4cccnc4)C(=O)C23)cc1 (stereo not drawn) [11m, N-[2,3,3a,4a,5,6,7,7a,8,8a-Decahydro-8-methyl-9-(4-methoxyphenyl)-1,3,5,7-tetraoxo-2,6-bis(3-pyridylcarboamino)-4,8-ethenobenzo[1,2-c:4,5-c′]dipyrrol-4(1H)-yl]benzamide] | 365 to 369 °C (dec.) | 
11 | C/C(=N\NC(=O)c1cccnc1)C1=CC2(NC(=O)c3ccccc3)C3C(=O)N(NC(=O)c4cccnc4)C(=O)C3C1(C)C1C(=O)N(NC(=O)c3cccnc3)C(=O)C12 (stereo not drawn) [11o, N-[2,3,3a,4a,5,6,7,7a,8,8a-Decahydro-8-methyl-1,3,5,7-tetraoxo-2,6-bis(3-pyridyl-carboamino)-9-(1-(N-[3-pyridylcarbo]hydrazonyl)eth-1-yl)-4,8-ethenobenzo[1,2-c:4,5-c′]dipyrrol-4(1H)-yl]benzamide] | 284 to 286 °C | 
12 | O=C(NN1C(=O)C2C(C1=O)C1(c3cccs3)C=CC2(NC(=O)c2ccccc2)C2C(=O)N(NC(=O)c3cccnc3)C(=O)C21)c1cccnc1 (stereo not drawn) [11g, N-[2,3,3a,4a,5,6,7,7a,8,8a-Decahydro-1,3,5,7-tetraoxo-2,6-bis(3-pyridylcarboamino)-8-(2-thienyl)-4,8-ethenobenzo[1,2-c:4,5-c′]dipyrrol-4(1H)-yl]benzamide] | 259 to 262 °C (dec.) | 
13 | O=C(NN1C(=O)C2C(C1=O)C1(c3cccs3)C=CC2(NC(=O)c2ccccc2)C2C(=O)N(NC(=O)c3ccncc3)C(=O)C21)c1ccncc1 (stereo not drawn) [11h, N-[2,3,3a,4a,5,6,7,7a,8,8a-Decahydro-1,3,5,7-tetraoxo-2,6-bis(4-pyridylcarboamino)-8-(2-thienyl)-4,8-ethenobenzo[1,2-c:4,5-c′]dipyrrol-4(1H)-yl]benzamide] | 310 to 312 °C | 
14 | O=C(NN1C(=O)C2C(C1=O)C1(c3ccccc3)C=CC2(NC(=O)c2ccccc2)C2C(=O)N(NC(=O)c3cccnc3)C(=O)C21)c1cccnc1 (stereo not drawn) [11b, N-[8-Phenyl-2,3,3a,4a,5,6,7,7a,8,8a-decahydro-1,3,5,7-tetraoxo-2,6-bis(3-pyridylcarboamino)-4,8-ethenobenzo[1,2-c:4,5-c′]dipyrrol-4(1H)-yl]benzamide] | 278 to 282 °C | 
15 | O=C(NN1C(=O)C2C(C1=O)C1(c3ccccc3)C=CC2(NC(=O)c2ccccc2)C2C(=O)N(NC(=O)c3ccncc3)C(=O)C21)c1ccncc1 (stereo not drawn) [11c, N-[8-Phenyl-2,3,3a,4a,5,6,7,7a,8,8a-decahydro-1,3,5,7-tetraoxo-2,6-bis(4-pyridylcarboamino)-4,8-ethenobenzo[1,2-c:4,5-c′]dipyrrol-4(1H)-yl]benzamide] | 289 to 293 °C | 
16 | CC1=CC2(c3ccccc3)C3C(=O)N(NC(=O)c4ccccn4)C(=O)C3C1(NC(=O)c1ccccc1)C1C(=O)N(NC(=O)c3ccccn3)C(=O)C12 (stereo not drawn) [11d, N-[8-Phenyl-2,3,3a,4a,5,6,7,7a,8,8a-decahydro-10-methyl-1,3,5,7-tetraoxo-2,6-bis(2-pyridylcarboamino)-4,8-ethenobenzo[1,2-c:4,5-c′]dipyrrol-4(1H)-yl]benzamide] | 271 to 274 °C | 
